According to US8608967B2, “Multiple stationary phase matrix and uses thereof” (The Board of Trustees of the University of Arkansas, priority 2011, dated 2013):

Experiment: Dual-phase UHPLC-MS/MS profiling of warfarin and hydroxywarfarins in plasma of patients receiving warfarin
Details: four plasma samples of patients receiving warfarin
Protocol: Human plasma samples were processed as described previously (Wikoff et al., Proc Natl Acad Sci, 2009, 106:3698). […] Following equilibration, ice cold 0.2% formic acid in H2O (190 μL) was added to each sample, followed by ice cold 0.2% formic acid in acetonitrile (1000 μL). Samples were allowed to precipitate at 4° C. for 30 minutes, followed by centrifugation (10 min at 16,000 g) in a microcentrifuge. The supernatant (1000 μL) was then transferred to a new vial and dried down in a speed vacuum concentrator. Plasma extracts were resolubilized (40 μL) in mobile phase (55% methanol, 45% H2O with 0.01% formic acid) maintaining a 1:1 ratio with the original volume of plasma.
Standard curves containing all hydroxywarfarins and deuterated internal standards were prepared in potassium phosphate (50 mM, pH 7.4) and analyzed in triplicate with the assay conditions described above. […] The limit of quantification (LOQ) was defined as 5 times the LOD. Metabolite concentrations calculated to be below the limit of quantification were reported as LOQ.
All samples were from males and are referred to as M61, […], […], and M80, respectively. Plasma samples were extracted as described above, and analyzed independently on three separate days.

| SMILES | presence of metabolite in human plasma (in words) |
| --- | --- |
| CC(=O)C(O)[C@H](c1ccccc1)c1c(O)c2ccccc2oc1=O (single isomer, unassigned) [R10b] | major observed metabolites |
| CC(=O)CC(c1ccccc1)c1c(O)c2cccc(O)c2oc1=O (stereo not drawn) [8-hydroxywarfarin] | below the limit of detection |
| CC(=O)C[C@H](c1ccccc1)c1c(O)c2ccc(O)cc2oc1=O [R7, R-7-hydroxywarfarin] | observed in all four plasma samples |
| CC(=O)C[C@@H](c1ccccc1)c1c(O)c2ccc(O)cc2oc1=O [S7, S-7-hydroxywarfarin] | major observed metabolites |
| CC(=O)CC(c1ccc(O)cc1)c1c(O)c2ccccc2oc1=O (stereo not drawn) [4″-hydroxywarfarin] | observed in some samples, but was below the limit of quantitation |
| CC(=O)C(O)[C@@H](c1ccccc1)c1c(O)c2ccccc2oc1=O (stereo partly drawn) [S10a] | detected but below the limit of quantitation |
| CC(=O)C(O)[C@H](c1ccccc1)c1c(O)c2ccccc2oc1=O (single isomer, unassigned) [R10a] | major observed metabolites |

Same assay, conditions: patients M61 and M75; 10-hydroxywarfarin derived from both R and S-warfarin

| SMILES | total plasma concentration compared with S-7-hydroxywarfarin |
| --- | --- |
| CC(=O)C(O)C(c1ccccc1)c1c(O)c2ccccc2oc1=O (stereo not drawn) [10-hydroxywarfarin] | higher than S-7-hydroxywarfarin concentrations |

Same assay, conditions: patients M76 and M80

| SMILES | most abundant metabolite in plasma |
| --- | --- |
| CC(=O)C[C@@H](c1ccccc1)c1c(O)c2ccc(O)cc2oc1=O [S7, S-7-hydroxywarfarin] | the most abundant metabolite |
